Our source for the TGI and GI50 values is PubChem BioAssay (NCI).

Each structure is given as a SMILES string. Several values for one entry are separate records, joined by “and”; a condition that tells them apart may be missing. Identical values can stand only once.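 Following 48 hours of exposure in 96-well plates, responses at five concentrations were used to interpolate endpoints linearly. The concentration for 50% growth inhibition is given as GI50. At the TGI there is no net growth.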

Experiment in all cases: growth of human tumour cells (NCI), 48 h
The subject of assay [1] is ACHN renal.
In assay [2] the test system is EKVX NSCLC.
Assay [3] has as its system HCC-2998 colon.
Assay [4] deals with HCT-116 colon.
The subject of assay [5] is HT29 colon.
The subject of assay [6] is IGROV1 ovarian.
In assay [7] the test system is KM12 colon.
Assay [8] deals with NCI-H23 lung.
Assay [9] has as its system SF-539 CNS.
Assay [10] concerns SK-MEL-28 melanoma.

With `Cc1c(C(=O)C/C(=N/NC(=O)CC#N)C(N)=O)[n+](=O)c2ccccc2n1[O-]`, the TGI in [1] is greater than 100 µM; in [2] it was greater than 100 µM; in [3], greater than 100 µM; in assay [4] it was 94 µM; in assay [5], greater than 100 µM; in [6] it was 87.5 µM. Further, the TGI in assay [7], in [8], in assay [9] and in assay [10] was greater than 100 µM each time.
For the compound `COc1cc([C@H]2c3cc(O)c(OC)cc3C[C@]3(O)[C@@H]2CO[C@@H]3O)ccc1O`, the TGI in assay [1], in [2], in assay [3], in [4], in [5] and in [6] was greater than 100 µM in each case. The TGI in assay [7], in assay [8], in [9] and in assay [10] was greater than 100 µM each time.
Regarding `O=C(/C=C/c1ccc(OCC(=O)N2CCN(c3ccccc3)CC2)cc1)c1ccccc1`, the TGI in assay [1] is greater than 89.6 µM; in assay [2] it was 98.9 µM; in assay [3], greater than 72.4 µM; in assay [4] it was greater than 56.6 µM; in assay [5] it was greater than 100 µM; in assay [6] it was greater than 100 µM. The TGI was greater than 75 µM in assay [7], 85.6 µM in [8], 46.8 µM in assay [9] and 54.5 µM in [10].
Take `Cc1cc(C2(c3cc(C)c(O)c4ncccc34)OC(=O)c3ccccc32)c2cccnc2c1O`: the TGI is 1.17 µM and 1.45 µM in assay [1]; greater than 100 µM in assay [3]; greater than 100 µM in assay [4]; greater than 100 µM in assay [5]; 7.94 µM and 21.9 µM in [6]; greater than 100 µM in assay [7]. The TGI in [9] was 4.69 µM and 11.7 µM; in assay [10] it was greater than 100 µM. In addition, the GI50 is 0.0124 µM in assay [2]; 0.106 µM in [5]; 0.0145 µM in [8]; 0.02 µM in [9]; greater than 100 µM in assay [10].
